{"source": "patent US20130064815A1", "about": "“INDUCING APOPTOSIS IN QUIESCENT CELLS” (THE TRUSTEES OF PRINCETON UNIVERSITY, priority 2011, published 2013)", "key": {"superoxide": {"system": "superoxide", "experiment": "intracellular superoxide levels with dihydroethidium (DHE)", "assay_type": "cell-based, human", "details": "proteasome inhibition", "source_text": "(§1) Other researchers have reported that there is a correlation between proliferative status and sensitivity to oxidative stress in human fibroblasts (Naderi et al., 2003, “Oxidative stress-induced apoptosis in dividing fibroblasts involves activation of p38 MAP kinase and over-expression of Bax: resistance of quiescent cells to oxidative stress, Apoptosis 8, 91-100, which is incorporated herein by reference as if fully set forth). […] A Western blot analysis was used to monitor the levels of the ROS detoxifying enzymes MnSOD and catalase, an enzyme that converts hydrogen peroxide to water and oxygen. The protein concentrations of MnSOD and catalase were higher in quiescent fibroblasts than in proliferating cells (FIG. 26B), consistent with a previous report (Sarsour et al., 2008, “Manganese superoxide dismutase activity regulates transitions between quiescent and proliferative growth, Aging cell 7, 405-417, which is incorporated herein by reference as if fully set forth). […] It was hypothesized that the higher levels of ROS-detoxifying enzymes in quiescent fibroblasts contributes to the protection of quiescent fibroblasts from proteasome inhibition-induced apoptosis. Intracellular superoxide levels were monitored using dihydroethidium (DHE), an indicator of superoxide anions."}, "[1]": {"system": "primary human fibroblasts", "experiment": "caspase 3/7 activity apoptosis assay (ApoTox-Glo) in proliferating and quiescent fibroblasts", "assay_type": "cell-based", "details": "MG132 0 to 10 μM; proliferating and serum-starved cells", "description": "Referring to FIG. 2A, primary human fibroblasts were tested either in a proliferating state or after being induced into quiescence. Quiescence may be induced by either contact inhibition or serum starvation. Cells were treated with DHEA for four days, with bafilomycin added on the fourth day. Apoptosis was assessed based on the activity of caspase 3/7 for a fluorogenic substrate.\nPPP inhibition and apoptosis analysis: Apoptosis was measured based on the levels of caspase 3/7 released into the media using the ApoTox-Glo Triplex Assay according to the manufacturer's instructions (Promega Corp., Madison, Wis.). Cells were plated in triplicate at 10,000 cells per well in white-walled, clear-bottom 96-well plates (Costar, Corning Life Sciences, Lowell, Mass.). For contact inhibition, cells were plated 7 days prior to the start of treatment, for serum starvation cells were plated 4 days prior to treatment and switched to 0.1% serum media for the remaining 3 days, while proliferating cells were plated the day prior to the start of treatment. […] Cells in serum starvation conditions were incubated in 0.1% serum during treatment as well. The apoptosis reagent was added at 100 μl per well and incubated for 1 h prior to reading. Luminescence was read from the top using a Synergy-2 plate reader (Biotek, Winooski, Vt.). Luminescence data were normalized to the vehicle only condition.\nApoptosis induction was assessed by monitoring caspase 3/7 activity using a luminescent caspase substrate. This assay is optimized for high-throughput screening in 96-well plates and allows multiple concentrations and combination of drugs to be tested in triplicate at different time points. […] Therefore, this assay was used to compare proliferating and serum-starved cells only."}, "[2]": {"experiment": "annexin V / PI flow cytometry after proteasome inhibition", "assay_type": "cell-based, human", "details": "human", "description": "(§2) To elucidate the responses of proliferating and quiescent fibroblasts to proteasome inhibition, the effects of known proteasome inhibitors on proliferating and quiescent fibroblasts were examined.\n(§3) At the highest dose (10 μM), approximately 50% of proliferating cells were apoptotic (FIG. 24A-lower right (Q4), upper right (Q2), and upper left (Q1) quadrants represent early apoptosis, late apoptosis, and very late apoptosis or necrosis, respectively). In comparison, quiescent fibroblasts were largely unaffected by MG132 treatment, showing far lower levels of apoptosis."}, "[3]": {"system": "proliferating and quiescent fibroblasts", "experiment": "annexin V / PI flow cytometry after proteasome inhibition", "assay_type": "cell-based, human", "details": "for cells with signs of apoptosis: highest dose (10 μM)", "description": "as §2, §3"}, "MnSOD": {"system": "MnSOD", "experiment": "MnSOD expression after MG132 (microarray, Western blot)", "assay_type": "cell-based, human", "source_text": "as §1"}, "LC3-II": {"system": "LC3-II", "experiment": "LC3-II immunoblot (autophagy / autophagic flux)", "assay_type": "cell-based, human", "details": "MG132 treatment; proliferating, contact-inhibited and serum-starved states", "description": "The levels of autophagy components—Atg5/Atg12, Atg7, Atg3, and LC3-I and LC3-II—were monitored in proliferating and contact-inhibited fibroblasts using immunoblotting (FIG. 21A). As a positive control for autophagy induction, samples of cells in each cell cycle state were also incubated in Kreb's Ringer Bicarbonate solution (KRB), a protocol that induces autophagy through amino acid starvation and elimination of other nutrients except glucose. Levels of Atg5/Atg12, Atg7, and LC3-II were elevated in all of the amino acid starvation and contact-inhibition states as compared to the proliferating state (FIG. 21A). Atg3 was induced in all quiescent states compared with proliferating states, including amino acid starvation. In order to differentiate whether the high levels of autophagy proteins resulted from a blockade of autophagy degradation or active flux through the pathway, we monitored the levels of LC3-II in proliferating and 7 dCI fibroblasts in the presence of bafilomycin A1 (Baf-A1). Baf-A1 is a vacuolar-type H^+-ATPase inhibitor that prevents autophagosome fusion with the lysosome due to an increase in lysosomal pH. […] This finding is consistent with active autophagic flux in quiescent fibroblasts\nIn addition to its role in providing amino acids and energy under starvation conditions, autophagy is involved in maintenance of cellular homeostasis and resistance to tumorigenesis through degradation of old or damaged proteins and entire organelles. It was hypothesized that autophagy in contact-inhibited cells could function to degrade old and/or damaged proteins that would otherwise accumulate in the cytoplasm due to lack of cell division as a mechanism for dilution of these proteins. Oxidation of proteins causes the formation of carbonyl groups on amino acids, and carbonylation can disrupt protein function. To monitor the extent of protein oxidation in proliferating and contact-inhibited fibroblasts, the protein carbonyl groups were derivatized using 2,4-dinitrophenylhydrazine (DNP), and monitored using immunoblotting with an antibody that recognizes the covalently added DNP. The levels of oxidized proteins in proliferating and 7 dCI fibroblasts were monitored in cells that were either competent to perform autophagy (control), or were stably expressing an shRNA against the essential autophagy components Atg5 (sh-Atg5) or Atg7 (sh-Atg7), which are known to represent autophagy-defective phenotypes in other model systems. […] In contact-inhibited fibroblasts, in contrast, the levels of oxidized proteins increased 1.5-fold±0.1 in 7 dCI sh-Atg5 fibroblasts as compared to vector control counterparts (p=0.009) (FIG. 22B). […]\nTo test this hypothesis, the levels of an autophagy-specific form of the LC3 protein, LC3 II, were monitored compared to a housekeeping protein (Klionsky et al., 2008, “Guidelines for the use and interpretation of assays for monitoring autophagy in higher eukaryotes,” Autophagy 4, 151-175, which is incorporated herein by reference as if fully set forth). […]\nWe observed an increase in the ratio of LC3 II to GAPDH in response to MG132 treatment for cells in proliferating, contact-inhibited and serum-starved states (FIG. 25B). To test whether the high levels of LC3 II in quiescent cells in response to MG132 treatment result from a blockade of autophagy degradation or from active flux through the pathway, LC3 II levels were monitored in proliferating and quiescent fibroblasts treated with MG132 in the presence or absence of bafilomycin A1 (Baf). […]"}}, "note": "Where a SMILES comes first, the peptide text is derived from it. The star is where a group is joined. Cbz = O=C(OCc1ccccc1)*", "data": [{"compound": "CC(C)C[C@@H](C=O)NC(=O)[C@H](CC(C)C)NC(=O)[C@H](CC(C)C)NC(=O)OCc1ccccc1", "note": "[MG132] (Cbz-Leu-Leu-Leu-aldehyde)", "values": [{"measurement": "superoxide levels", "setting": "superoxide; proliferating cells", "result": "significant induction of superoxide levels"}, {"measurement": "superoxide levels", "setting": "superoxide; quiescent cells", "result": "maintained basal superoxide levels"}, {"measurement": "caspase 3/7 activity", "setting": "[1]", "result": "dose-dependent increases"}, {"measurement": "cytotoxicity at 24 h, 10 μM", "setting": "[2]", "result": "~50", "unit": "%"}, {"measurement": "viability, quiescent vs proliferating fibroblasts", "setting": "[3]; 48 hours of treatment", "result": "significantly higher number of quiescent fibroblasts maintained viability"}, {"measurement": "cells with signs of apoptosis", "setting": "[3]; contact-inhibited fibroblasts, 24 hours", "result": "approximately 14%"}, {"measurement": "apoptotic cells (annexin V and PI)", "setting": "[3]; proliferating cells, 10 μM, 24 hours", "result": "approximately 50%"}, {"measurement": "proliferating cell viability (fraction PI negative)", "setting": "[3]; proliferating cells, 24 hours", "result": "statistically significant, dose-dependent decrease"}, {"measurement": "quiescent cell viability", "setting": "[3]; quiescent cells, 24 hours, up to 10 μM MG132, 1 μM epoxomicin", "result": "maintained high viability"}, {"measurement": "cells with signs of apoptosis", "setting": "[3]; serum-starved fibroblasts, 24 hours", "result": "~10", "unit": "%"}, {"measurement": "MnSOD protein levels", "setting": "MnSOD; Western blot, proliferating and quiescent fibroblasts", "result": "further elevated MnSOD levels"}, {"measurement": "MnSOD transcript expression", "setting": "MnSOD; microarray, proliferating and quiescent cells", "result": "induced MnSOD expression"}, {"measurement": "ratio of LC3 II to GAPDH", "setting": "LC3-II", "result": "increase"}]}]}
